Test results: ChEMBL document CHEMBL1129022, “Synthesis and antibacterial activity of new tropone-substituted phenyloxazolidinone antibacterial agents 2. Modification of the phenyl ring the potentiating effect of fluorine substitution on in vivo activity” (1996)
Values after ≈ are worked out from the molar mass of the structure shown.

Tests used:
Assay type in all cases: functional
Escherichia coli [1] = assay: Compound was tested in vitro for antibacterial activity against Escherichia coli extracts, using cell free prokaryotic transcription coupled translation (T/T) assay.; conditions: dose or concentration not given here
Streptococcus pneumoniae = assay: Compound was tested in vitro for antibacterial activity against Streptococcus pneumoniae UC 9912.
Enterococcus faecalis = assay: Compound was tested in vitro for antibacterial activity against Enterococcus faecalis UC 9217.
[2] = system: Staphylococcus epidermidis; assay: Compound was tested in vitro for antibacterial activity against methicillin-resistant Staphylococcus epidermidis UC 12084.
Staphylococcus aureus [3] = assay: Compound was tested in vitro for antibacterial activity against methicillin-susceptible Staphylococcus aureus UC 9213.
Mus musculus = assay: Amount of drug required (mg/kg body weight/dose) to cure 50% of infected mice subjected to a lethal systemic infection with Staphylococcus aureus UC 9213
Escherichia coli [4] = assay: Compound was tested in vitro for antibacterial activity against Escherichia coli extracts, using cell free prokaryotic transcription coupled translation (T/T) assay at 2 ug/mL
Bacteroides fragilis = assay: Compound was tested in vitro for antibacterial activity against Bacteroides fragilis UC 12199.
Staphylococcus aureus [5] = assay: Compound was tested in vitro for antibacterial activity against methicillin-resistant Staphylococcus aureus UC 6685
[6] = system: Mycobacterium tuberculosis; assay: Compound was tested in vitro for antibacterial activity against Mycobacterium tuberculosis H37Rv.

Row | Structure (SMILES) | inhibition (Escherichia coli [1]) [%] | MIC (Streptococcus pneumoniae) [µg/mL] | MIC (Enterococcus faecalis) [µg/mL] | MIC [2] [µg/mL] | MIC (Staphylococcus aureus [3]) [µg/mL] | ED50 (Mus musculus) [mg/kg] | inhibition (Escherichia coli [4]) [%] | MIC (Bacteroides fragilis) [µg/mL] | MIC (Staphylococcus aureus [5]) [µg/mL] | MIC [6] [µg/mL]
1 | COc1ccc(-c2c(F)cc(N3CC(CNC(C)=O)OC3=O)cc2F)ccc1=O (centres undefined) | 85 | 0.5 (≈ 1.24 µM) | 1 (≈ 2.47 µM) | 0.5 (≈ 1.24 µM) | 2 (≈ 4.95 µM) | 3.7 |  |  |  | 
2 | COc1ccc(-c2ccc(N3CC(CNC(C)=O)OC3=O)cc2Cl)ccc1=O (centres undefined) |  | 1 (≈ 2.48 µM) | 2 (≈ 4.96 µM) | 1 (≈ 2.48 µM) | 4 (≈ 9.93 µM) | > 20 | 71 |  |  | 
3 | C#CCNc1ccc(-c2ccc(N3C[C@H](CNC(C)=O)OC3=O)cc2F)ccc1=O |  | 0.125 (≈ 0.305 µM) | 0.5 (≈ 1.22 µM) | 0.25 (≈ 0.611 µM) | 1 (≈ 2.44 µM) | 1.3 |  | 2 (≈ 4.88 µM) | 0.5 (≈ 1.22 µM) | 
4 | CN[C@H](CC(C)C)C(=O)N[C@H]1C(=O)N[C@@H](CC(N)=O)C(=O)N[C@H]2C(=O)N[C@H]3C(=O)N[C@H](C(=O)N[C@H](C(=O)O)c4cc(O)cc(O)c4-c4cc3ccc4O)[C@H](O)c3ccc(c(Cl)c3)Oc3cc2cc(c3O[C@@H]2O[C@H](CO)[C@@H](O)[C@H](O)[C@H]2O[C@H]2C[C@](C)(N)[C@H](O)[C@H](C)O2)Oc2ccc(cc2Cl)[C@H]1O [VANCOMYCIN] |  | 0.5 (≈ 0.345 µM) |  |  |  | 2.2 |  |  |  | 
5 | COc1ccc(-c2ccc(N3CC(CNC(C)=O)OC3=O)cc2C(F)(F)F)ccc1=O (centres undefined) |  | 4 (≈ 9.17 µM) | 16 (≈ 36.7 µM) | 4 (≈ 9.17 µM) | 32 (≈ 73.3 µM) | > 20 | 58 |  |  | 
6 | COc1ccc(-c2ccc(N3CC(CNC(C)=O)OC3=O)cc2)ccc1=O (centres undefined) |  | 0.25 (≈ 0.679 µM) | 1 (≈ 2.71 µM) | 0.5 (≈ 1.36 µM) | 2 (≈ 5.43 µM) | 12.2 | 89 |  |  | 
7 | COc1ccc(-c2ccc(N3CC(CNC(C)=O)OC3=O)cc2F)ccc1=O (centres undefined) |  | 0.25 (≈ 0.647 µM) | 1 (≈ 2.59 µM) | 0.5 (≈ 1.29 µM) | 1 (≈ 2.59 µM) | 7.7 |  |  |  | 
8 | COc1ccc(-c2ccc(N3C[C@H](CNC(C)=O)OC3=O)cc2F)ccc1=O |  | 0.125 (≈ 0.324 µM) | 0.5 (≈ 1.29 µM) | 0.25 (≈ 0.647 µM) | 1 (≈ 2.59 µM) | 4.1 |  | 8 (≈ 20.7 µM) | 0.5 (≈ 1.29 µM) | < 1
9 | COc1ccc(-c2c(F)cc(N3C[C@H](CNC(C)=O)OC3=O)cc2F)ccc1=O |  | 0.25 (≈ 0.618 µM) | 1 (≈ 2.47 µM) | 0.5 (≈ 1.24 µM) | 1 (≈ 2.47 µM) | 2.3 |  | 8 (≈ 19.8 µM) | 0.5 (≈ 1.24 µM) | 
10 | C/N=c1\ccc(-c2ccc(N3C[C@H](CNC(C)=O)OC3=O)cc2F)ccc1O |  | 0.125 (≈ 0.324 µM) | 0.25 (≈ 0.649 µM) | 0.125 (≈ 0.324 µM) | 0.5 (≈ 1.3 µM) |  |  | 2 (≈ 5.19 µM) | 0.25 (≈ 0.649 µM) | 
